Results reported in patent US6492374B2, “Benzofuran derivatives, their preparation and use” (H. Lundbeck A/S, priority 1998, dated 2002).
Like-named read-outs stand apart in the source and are kept apart here.

Legend:
[1] = target: T1, cloned human 5-HT1A receptors (Homo sapiens, UniProt P08908); assay: Inhibition of 3H-5-CT binding to human 5-HT1A receptors
T1 construct: expressed in transfected cells; host or cells: HeLa cells (HA7), stably transfected; cell homogenate
T1 sequence (P08908 1-422): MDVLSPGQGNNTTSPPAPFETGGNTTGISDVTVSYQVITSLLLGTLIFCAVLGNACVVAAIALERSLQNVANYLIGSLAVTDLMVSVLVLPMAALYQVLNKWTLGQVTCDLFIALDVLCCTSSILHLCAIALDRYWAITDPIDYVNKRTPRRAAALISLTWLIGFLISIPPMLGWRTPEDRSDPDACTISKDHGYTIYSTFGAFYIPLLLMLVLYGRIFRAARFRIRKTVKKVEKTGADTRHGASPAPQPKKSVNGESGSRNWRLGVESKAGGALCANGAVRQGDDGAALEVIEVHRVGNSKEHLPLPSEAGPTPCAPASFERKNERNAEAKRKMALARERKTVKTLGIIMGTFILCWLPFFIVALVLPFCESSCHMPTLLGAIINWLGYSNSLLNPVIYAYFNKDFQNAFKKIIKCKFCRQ
Experimental: Inhibition of ^3H-5CT Binding to Human 5-HT1A Receptors
Human 5-HT1A receptors (40 μg of cell homogenate) were incubated for 15 minutes at 37° C. in 50 mM Tris buffer at pH 7.7 in the presence of ^3H-5-CT. Non-specific binding was determined by including 10 μM of metergoline. The reaction was terminated by rapid filtration through Unifilter GF/B filters on a Tomtec Cell Harvester. Filters were counted in a Packard Top Counter.

[2] = system: serotonin reuptake (3H-5-HT uptake into whole rat brain synaptosomes); assay: Inhibition of 3H-5-HT uptake into rat brain synaptosomes; type: biochemical
Experimental: Inhibition of ^3H-5HT Uptake Into Rat Brain Synaptosomes
Using this method, the ability of drugs to inhibit the accumulation of ^3H-5-HT into whole rat brain synaptosomes is determined in vitro.

[3] = cloned human 5-HT1A receptors expressed in HeLa cells (HA7)

Row | SMILES | IC50 [1, 3] | IC50 [2] | Inhibition of serotonin reuptake % inhibition at 100 nM [2] | IC50 [1]
1 | COc1ccccc1N1CCN(CCCC2(c3ccc(F)cc3)OCc3cc(C#N)ccc32)CC1 (stereo not shown) [Compound 2a, 1-(4-Fluorophenyl)-1-[3-[4-(2-methoxyphenyl)piperazinyl]propyl]-1,3-dihydroisobenzofuran-5-carbonitrile] | 1 nM |  |  | 
2 | COc1ccccc1OCCN(C)CCCC1(c2ccc(F)cc2)OCc2cc(C#N)ccc21 (stereo not shown) [Compound 2b, 1-(4-Fluorophenyl)-1-[3-[[2-(2-methoxyphenoxy)ethyl]methylamino]propyl]-1,3-dihydroisobenzofuran-5-carbonitrile] | 6.4 nM | 40 nM |  | 
3 | CN(CCCCc1c[nH]c2ccccc12)CCCC1(c2ccccc2)OCc2ccccc21 (stereo not shown) [Compound 2e, 1-[3-[[4-(1H-Indol-3-yl)butyl]methylamino]propyl]1-phenyl-1,3-dihydroisobenzofuran] | 38 nM | 15 nM |  | 
4 | CN(CCCc1c[nH]c2ccccc12)CCC[C@@]1(c2ccc(F)cc2)OCc2cc(C#N)ccc21 [Compound 2f, (S)-1-[3-[[3-(1H-Indol-3-yl)propyl]methylamino]propyl]-1-(4-fluorophenyl)-1,3-dihydroisobenzofuran-5-carbonitrile] | 8.6 nM | 14 nM |  | 
5 | CN(CCCc1c[nH]c2ccccc12)CCCC1(c2ccccc2)OCc2ccccc21 (stereo not shown) [Compound 2g, 1-[3-[[3-(1H-Indol-3-yl)propyl]methylamino]propyl]-1-phenyl-1,3-dihydroisobenzofuran] | 40 nM | 20 nM |  | 
6 | CN(CCCc1cccc2c1OCCO2)CCCC1(c2ccc(F)cc2)OCc2ccccc21 (stereo not shown) [Compound 2j, 5-[3-[[3-[1-(4-Fluorophenyl)-1,3-dihydroisobenzofuran-1-yl]propyl]methylamino]propyl]-1,4benzodioxane] | 41 nM | 9.7 nM |  | 
7 | N#Cc1ccc2c(c1)COC2(CCCN1CCN(c2cccc3[nH]ccc23)CC1)c1ccc(F)cc1 (stereo not shown) [Compound 2m, 1-[3-[4-(1H-Indol-4-yl)piperazinyl]propyl]-1-(4fluorophenyl)-1,3-dihydroisobenzofuran-5carbonitrile] | 4.7 nM |  |  | 
8 | N#Cc1ccc2c(c1)COC2(CCCN1CCN(c2ccc3[nH]ccc3c2)CC1)c1ccc(F)cc1 (stereo not shown) [Compound 2n, 1-[3-[4-(1H-Indol-5-yl)piperazinyl]propyl]-1-(4-fluorophenyl)-1,3-dihydroisobenzofuran-5-carbonitrile] | 15 nM |  |  | 
9 | N#Cc1ccc2c(c1)COC2(CCCN1CCC(c2c[nH]c3cc(Cl)ccc23)CC1)c1ccc(F)cc1 (stereo not shown) [Compound 2o, 1-[3-[4-(6-chloro-1H-Indol-3-yl)piperidinyl]propyl]-1-(4fluorophenyl)-1,3-dihydroisobenzofuran-5-carbonitrile] | 12 nM |  |  | 
10 | CN(CCCC1(c2ccc(F)cc2)OCc2cc(C#N)ccc21)CCc1c[nH]c2ccccc12 (stereo not shown) [Compound 4a, 1-[3-[[2-(1H-Indol-3-yl)ethyl]methylamino]propyl]-1-(4-fluorophenyl)-1,3-dihydroisobenzofuran-5-carbonitrile] | 23 nM | 54 nM |  | 
11 | COc1cccc(CCN(C)CCCC2(c3ccc(F)cc3)OCc3cc(C#N)ccc32)c1 (stereo not shown) [Compound 4b, 1-(4-Fluorophenyl)-1-[3-[[2-(3-methoxyphenyl)ethyl]methylamino]propyl]-1,3-dihydroisobenzofuran-5-carbonitrile] | 63 nM |  | 59% inh. at 100 nM | 
12 | C=CCN(CCCC1(c2ccc(F)cc2)OCc2cc(C#N)ccc21)CCc1cccc(OC)c1 (stereo not shown) [Compound 4c, 1-(4-Fluorophenyl)-1-[3-[[2-(3-methoxyphenyl)ethyl](prop-2-en-1-yl)amino]propyl]-1,3-dihydroisobenzofuran-5-carbonitrile] | 11 nM |  | 4% inh. at 100 nM | 
13 | C=CCN(CCCC1(c2ccc(F)cc2)OCc2cc(C#N)ccc21)CCc1ccccc1OC (stereo not shown) [Compound 4d, 1-(4-Fluorophenyl)-1-[3-[[2-(2-methoxyphenyl)ethyl](prop-2-en-1-yl)amino]propyl]-1,3-dihydroisobenzofuran-5-carbonitrile] | 4.5 nM |  | 7% inh. at 100 nM | 
14 | COc1ccc(OC)c(CCN(C)CCCC2(c3ccc(F)cc3)OCc3cc(C#N)ccc32)c1 (stereo not shown) [Compound 4e, 1-[3-[[2-(2,5-Dimethoxyphenyl)ethyl]methylamino]propyl]-1-(4-fluorophenyl)-1,3-dihydroisobenzofuran-5-carbonitrile] |  | 160 nM |  | 17 nM
15 | C=CCN(CCCC1(c2ccc(F)cc2)OCc2cc(C#N)ccc21)CCc1cc(OC)ccc1OC (stereo not shown) [Compound 4f, 1-[3-[[2-(2,5-Dimethoxyphenyl)ethyl](prop-2-en-1-yl)amino]propyl]-1-(4-fluorophenyl)-1,3-dihydroisobenzofuran-5-carbonitrile] | 1.6 nM |  | 4% inh. at 100 nM | 
16 | CN(CCCC1(c2ccc(F)cc2)OCc2cc(C#N)ccc21)CCOc1ccccc1 (stereo not shown) [Compound 4g, 1-(4-Fluorophenyl)-1-[3-[[2-phenoxyethyl]methylamino]propyl]-1,3-dihydroisobenzofuran-5carbonitrile] | 18 nM |  | 28% inh. at 100 nM | 
17 | C=CCN(CCCc1cccc(OC)c1)CCCC1(c2ccc(F)cc2)OCc2cc(C#N)ccc21 (stereo not shown) [Compound 4l] |  |  | 27% inh. at 100 nM | 
18 | COc1ccccc1OCCCN(C)CCCC1(c2ccc(F)cc2)OCc2cc(C#N)ccc21 (stereo not shown) [Compound 4m] |  |  | 74% inh. at 100 nM | 
19 | C#CCN(CCCc1c[nH]c2ccccc12)CCCC1(c2ccc(F)cc2)OCc2cc(C#N)ccc21 (stereo not shown) [Compound 4u, 1-[3-[[3-(1H-Indol-3-yl)propyl](prop-2-yl-1-yl)amino]propyl]-1-(4-fluorophenyl)-1,3-dihydroisobenzofuran-5-carbonitrile] |  |  | 44% inh. at 100 nM | 
20 | CN(CCCC1(c2ccc(F)cc2)OCc2cc(C#N)ccc21)CCc1c[nH]c2c(F)cccc12 (stereo not shown) [Compound 12b, 1-[3-[[2-(7-Fluoro-1H-indol-3-yl)ethyl]methylamino]propyl]-1-(4-fluorophenyl)-1,3-dihydroisobenzofuran-5-carbonitrile] |  |  |  | 43 nM
21 | C=CCN(CCCc1c[nH]c2ccc(Cl)cc12)CCCC1(c2ccc(F)cc2)OCc2cc(C#N)ccc21 (stereo not shown) [Compound 13k, 1-[3-[[3-(5-Chloro-1H-indol-3-yl)propyl](prop-2-en-1-yl)amino]propyl]-1-(4-fluorophenyl)-1,3-dihydroisobenzofuran-5-carbonitrile] | 19 nM |  |  | 
22 | N#Cc1ccc2c(c1)COC2(CCCN(CCCc1c[nH]c2ccccc12)CCOc1ccccc1)c1ccc(F)cc1 (stereo not shown) [Compound 13p, 1-[3-[[3-(1H-Indol-3-yl)propyl](2-phenoxyethyl)amino]propyl]-1-(4-fluorophenyl)-1,3-dihydroisobenzofuran-5-carbonitrile] | 23 nM |  |  | 
23 | Cc1ccc2[nH]cc(CCN(CCCC3(c4ccc(F)cc4)OCc4cc(C#N)ccc43)CCOc3ccccc3)c2c1 (stereo not shown) [Compound 13q, 1-[3-[[2-(5-Methyl-1H-indol-3-yl)ethyl](2-phenoxyethyl)amino]propyl]-1-(4-fluorophenyl)-1,3dihydroisobenzofuran-5-carbonitrile] | 12 nM |  |  | 
24 | N#Cc1ccc2c(c1)COC2(CCCN(CCOc1ccccc1)CCc1c[nH]c2ccc(F)cc12)c1ccc(F)cc1 (stereo not shown) [Compound 13r, 1-[3-[[2-(5-Fluoro-1H-indol-3-yl)ethyl](2-phenoxyethyl)amino]propyl]-1-(4-fluorophenyl)-1,3-dihydroisobenzofuran-5-carbonitrile] | 8.9 nM |  |  | 
25 | Cc1ccc2[nH]cc(CCCN(CCCC3(c4ccc(F)cc4)OCc4cc(C#N)ccc43)CCOc3ccccc3)c2c1 (stereo not shown) [Compound 13t, 1-[3-[[3-(5-Methyl-1H-indol-3-yl)propyl](2-phenoxyethyl)amino]propyl]-1-(4-fluorophenyl)-1,3-dihydroisobenzofuran-5-carbonitrile] | 23 nM |  |  | 
26 | N#Cc1ccc2c(c1)COC2(CCCN(CCCc1c[nH]c2ccc(F)cc12)CCOc1ccccc1)c1ccc(F)cc1 (stereo not shown) [Compound 13u, 1-[3-[[3-(5-Fluoro-1H-indol-3-yl)propyl](2-phenoxyethyl)amino]propyl]-1-(4-fluorophenyl)-1,3-dihydroisobenzofuran-5-carbonitrile] | 22 nM |  |  | 
27 | N#Cc1ccc2c(c1)COC2(CCCN(CCOc1ccccc1)CCc1c[nH]c2c(F)cc(F)cc12)c1ccc(F)cc1 (stereo not shown) [Compound 13v, 1-[3-[[2-(5,7-Difluoro-1H-indol-3-yl)ethyl](2-phenoxyethyl)amino]propyl]-1-(4-fluorophenyl)-1,3-dihydroisobenzofuran-5-carbonitrile] | 23 nM |  |  | 
28 | CC(C)c1ccc2[nH]cc(CCN(CCCC3(c4ccc(F)cc4)OCc4cc(C#N)ccc43)CCOc3ccccc3)c2c1 (stereo not shown) [Compound 13x, 1-[3-[(2-Phenoxyethyl)[2-[5-(2-propyl)-1H-indol-3-yl]ethyl]amino]propyl]-1-(4-fluorophenyl)-1,3-dihydroisobenzofuran-5-carbonitrile] | 26 nM |  |  | 
